Patent US5591742A, “Pyridopyrimidinone antianginal agents” (Pfizer Inc., priority 1992, dated 1997)

Legend:
[1] = tested on: calcium/calmodulin (Ca/CAM)-independent cGMP PDE; assay: PDE inhibition: Ca/CAM-independent cGMP PDE from rabbit platelets; format: biochemical; details: IC50 cGMP-inhibited cAMP PDE / IC50 Ca/CAM-independent cGMP PDE
Experimental: (§1) Phosphodiesterase activity
(§2) Compound affinities for cGMP and cAMP PDEs are assessed by determination of their IC50 values (the concentration of inhibitor required for 50% inhibition of enzyme activity). The PDE enzymes are isolated from rabbit platelets and rat kidney, essentially by the method of W. J. Thompson et al. (Biochem., 1971, 10, 311). The calcium/calmodulin (Ca/CAM)--independent cGMP PDE and the cGMP-inhibited cAMP PDE enzymes are obtained from rabbit platelets whilst, of the four major PDE enzymes of the rat kidney, the Ca/CAM-dependent cGMP PDE (fraction I) is isolated. Assays are performed using a modification of the "batch" method of W. J. Thompson and M. M. Appleman (Biochem., 1979, 18, 5228).

[2] = molecular target: T1, calcium/calmodulin (Ca/CAM)-independent cGMP PDE (Oryctolagus cuniculus, UniProt G1SX67); assay: as above; format: biochemical; details: Ca/CAM-independent cGMP PDE, rabbit platelets, in vitro
T1 construct: The PDE enzymes are isolated from rabbit platelets and rat kidney; from tissue; host or cells: rabbit platelets
Experimental: as §1, §2

cGMP-inhibited cAMP PDE = molecular target: T2, cGMP-inhibited cAMP PDE (Oryctolagus cuniculus, UniProt G1ST54); assay: PDE inhibition: cGMP-inhibited cAMP PDE from rabbit platelets; format: biochemical; details: in vitro
T2 construct: from tissue; host or cells: rabbit platelets
T2 sequence (G1ST54 1-1128): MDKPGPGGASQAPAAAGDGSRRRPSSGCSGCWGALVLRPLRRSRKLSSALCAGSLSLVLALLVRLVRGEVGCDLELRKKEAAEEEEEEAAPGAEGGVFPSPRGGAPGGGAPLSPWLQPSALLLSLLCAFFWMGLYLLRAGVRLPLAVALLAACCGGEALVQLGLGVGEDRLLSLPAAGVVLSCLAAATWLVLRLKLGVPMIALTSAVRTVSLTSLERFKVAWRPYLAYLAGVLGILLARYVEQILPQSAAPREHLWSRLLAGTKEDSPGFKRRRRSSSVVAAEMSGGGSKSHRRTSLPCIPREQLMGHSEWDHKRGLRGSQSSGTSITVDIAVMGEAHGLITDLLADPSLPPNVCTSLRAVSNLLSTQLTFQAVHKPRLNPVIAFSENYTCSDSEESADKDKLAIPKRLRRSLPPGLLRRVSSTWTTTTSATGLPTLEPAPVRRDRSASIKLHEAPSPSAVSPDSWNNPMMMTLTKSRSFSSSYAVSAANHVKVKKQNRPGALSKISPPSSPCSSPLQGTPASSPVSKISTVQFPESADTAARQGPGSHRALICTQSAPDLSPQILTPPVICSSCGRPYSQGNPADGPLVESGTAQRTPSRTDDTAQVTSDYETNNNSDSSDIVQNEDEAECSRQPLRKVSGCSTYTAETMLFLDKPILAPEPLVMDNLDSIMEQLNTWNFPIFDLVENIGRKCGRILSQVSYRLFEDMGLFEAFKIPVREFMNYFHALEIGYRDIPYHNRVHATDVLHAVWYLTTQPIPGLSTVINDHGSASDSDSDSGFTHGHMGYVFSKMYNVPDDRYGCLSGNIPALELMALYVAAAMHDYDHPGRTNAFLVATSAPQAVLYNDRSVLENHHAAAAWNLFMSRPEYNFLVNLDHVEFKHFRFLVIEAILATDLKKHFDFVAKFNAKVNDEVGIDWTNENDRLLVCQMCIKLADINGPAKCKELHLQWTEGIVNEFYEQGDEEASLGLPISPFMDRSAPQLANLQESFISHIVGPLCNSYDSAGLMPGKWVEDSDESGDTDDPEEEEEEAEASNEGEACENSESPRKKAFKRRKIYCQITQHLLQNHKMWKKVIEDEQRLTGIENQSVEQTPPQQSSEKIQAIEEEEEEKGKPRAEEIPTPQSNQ
Experimental: as §1, §2

[3] = Safety profile in rabbit (i.v. or i.d.); format: in vivo

IC50 [2] [nM] | IC50 (cGMP-inhibited cAMP PDE) [nM] | Compound | SELECTIVITY RATIO [1] | untoward effects ([3]; doses up to 3 mg/kg i.d.) | untoward effects ([3]; doses up to 1 mg/kg i.v.) | untoward effects ([3]; doses up to 10 mg/kg i.d.) | untoward effects ([3]; doses up to 0.1 mg/kg i.v.)
21 | 19000 | CCCc1ccnc2c(=O)[nH]c(-c3cc(S(=O)(=O)NCCN4CCOCC4)ccc3OCC)nc12 [Example 1, 2-[2-Ethoxy-5-(2-morpholinoethylsulphamoyl)phenyl]-8-n-propylprido [3,2,d]pyrimidin-4 (3H) -one] | 904 | no untoward effects being observed |  |  | 
19 | 4600 | CCCc1ccnc2c(=O)[nH]c(-c3cc(NS(=O)(=O)c4cccnc4)ccc3OCC)nc12 [Example 12A, 2-[2-Ethoxy-5-(3-pyridylsulphonylamino)phenyl]-8-n-propylpyrido [3,2-d]pyrimidin-4(3H) -one] | 242 |  |  |  | 
26 | 13000 | CCCc1ccnc2c(=O)[nH]c(-c3cc(S(=O)(=O)N4CCN(C)CC4)ccc3OCC)nc12 [Example 2, 2-[2-Ethoxy-5(4-methyl-l-piperazinylsulphonyl)phenyl]-8-n-propylrido [3,2-d]pyrimidin-4(3H)-one] | 500 |  |  |  | 
5.6 | 7600 | CCCc1ccnc2c(=O)[nH]c(-c3cc(S(=O)(=O)N4CCC(C(=O)OCC)CC4)ccc3OCC)nc12 [Example 4, 2-[2-Ethoxy-5-(4-ethoxycarbonylpiperidinosulphonyl)-phenyl]-8-n-propylprido[3,2-d]pyrimidin-4(3H) -one] | 1,357 |  |  |  | 
 |  | CCCc1ccnc2c(=O)[nH]c(-c3cc(S(=O)(=O)NCCN4CCNC4=O)ccc3OCC)nc12 [Example 8, 2-{2-Ethoxy-5-[2-(1-imidazolidin-2-onyl)ethyl-sulphamoyl]phenyl}-8-n-propylprido[3,2-d]pryimidin-4 (3H)-one] |  | no untoward effects being observed |  |  | 
25 | > 100000 | CCOc1ccc(S(=O)(=O)N2CCN(C)CC2)cc1-c1nc2c(C#N)ccnc2c(=O)[nH]1 [Example 24, 8-Cyano-2-[2-ethoxy-5-(4-methyl-1-piperazinyl-sulphonyl)phenyl]pyrido[3,2d]pyrimidin-4(3H)-one] | > 4,000 |  |  |  | 
1.2 | 220 | CCCc1ccnc2c(=O)[nH]c(-c3cc(S(=O)(=O)N4CCC(C(=O)O)CC4)ccc3OCC)nc12 [Example 9, 2-[5-(4-Carboxypiperidinosulphonyl)-2-ethoxyphenyl]-8-n-propylprido [3,2-d]pyrimidin-4(3H)-one] | 183 |  | no untoward effects being observed |  | 
14 | 8300 | CCCc1ccnc2c(=O)[nH]c(-c3cc(S(=O)(=O)N(C)CCC(=O)OCC)ccc3OCC)nc12 [Example 5, 2-[2 -Ethoxy-5-(N-2-ethoxycarbonylethyl-N-methyl-sulphamoyl)phenyl]-8-n-propylpyrido[3,2-d]pyrimidin-4(3H)-one] | 592 |  |  |  | 
 |  | CCCc1ccnc2c(=O)[nH]c(-c3cc(S(=O)(=O)N4CCNCC4)ccc3OCC)nc12 [Example 3, 2-[2-Ethoxy-5-(1-piperazinylsulphonyl]phenyl]-8-n-propylprido [3,2-d]pyrimidin-4(3H) -one] |  |  |  | no untoward effects being observed | 
9.8 | 11000 | CCCc1ccnc2c(=O)[nH]c(-c3cc(S(=O)(=O)N4CCN(CCO)CC4)ccc3OCC)nc12 [Example 7, 2-{2-Ethoxy-5-[4-(2-hydroxyethyl)-1-piperazinyl-sulphony]phenyl}-8-n-propylprido[3.2-d]pyrimidin-4(3H)-one] | 1,122 |  |  |  | no untoward effects being observed
